The results in this text go back to patent US20210138055A1, “COMPOSITIONS, METHODS AND USES FOR MODULATING THE TUMOR MICROENVIRONMENT TO ENHANCE ANTITUMOR IMMUNITY” (COLORADO STATE UNIVERSITY RESEARCH FOUNDATION, priority 2018, published 2021).

The test deals with monocytes from healthy dogs. Kind of test: Monocyte migration inhibition in vitro. Particulars: at relevant serum concentrations (levels achieved by oral dosing); compared to positive and negative controls; FIG. 4.

For `CCCCc1nc(Cl)c(CO)n1Cc1ccc(-c2ccccc2-c2nn[nH]n2)cc1` [losartan], the “monocyte migration inhibitory activity” value is reported as “significant inhibitory activity”. Under `CC(C)NCC(O)COc1cccc2ccccc12` (centres unmarked) [propranolol] stands “significant inhibitory activity”.
